The text below walks through data of article PMC4843824 (Nature chemistry, 2016).

Experiment in all cases: differential UV-vis titration
For test [1], the target named is T1, TxtE (Streptomyces scabiei, UniProt C9ZDC6, H176W).
T1 sequence (C9ZDC6 1-406 H176W): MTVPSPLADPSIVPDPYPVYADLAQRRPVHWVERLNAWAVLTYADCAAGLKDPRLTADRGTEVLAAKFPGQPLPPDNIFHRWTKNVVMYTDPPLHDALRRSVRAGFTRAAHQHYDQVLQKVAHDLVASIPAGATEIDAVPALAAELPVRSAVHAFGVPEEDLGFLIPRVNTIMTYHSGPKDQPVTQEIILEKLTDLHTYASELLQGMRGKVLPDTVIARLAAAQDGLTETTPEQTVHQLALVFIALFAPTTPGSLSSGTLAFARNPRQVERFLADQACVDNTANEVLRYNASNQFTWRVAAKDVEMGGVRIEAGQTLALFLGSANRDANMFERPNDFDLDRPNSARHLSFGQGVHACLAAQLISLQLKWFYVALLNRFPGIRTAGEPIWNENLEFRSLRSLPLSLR
The test is classed as binding.

Another test addresses Virginiae_TxtE. The test is classed as binding, Streptomyces virginiae. The settings on record: read-out: Kd (μM)^b; 25 mM Tris pH 8.
The target in test [2] is T2, TxtE (Streptomyces scabiei, UniProt C9ZDC6, H176Y).
T2 sequence (C9ZDC6 1-406 H176Y): T1 sequence (C9ZDC6 1-406 H176W)
Format: binding.

Test [3] concerns the target T3, TxtE (Streptomyces scabiei, UniProt C9ZDC6, H176F).
T3 sequence (C9ZDC6 1-406 H176F): T1 sequence (C9ZDC6 1-406 H176W)
The test is classed as binding.

Usually Kd stands for the free concentration of one partner at which half of the binding sites on the other are occupied at equilibrium, for simple one-to-one binding. As for `N[C@@H](Cc1c[nH]c2ccccc12)C(=O)O` [L-tryptophan], the Kd at TxtE [1] was determined as 1.3 ± 0.1 µM; at Virginiae_TxtE, 140 ± 6 µM; at TxtE [2] it was 4.9 ± 0.3 µM; at TxtE [3], 2.6 ± 0.1 µM.
